In the NIST ThermoML archive (doi:10.1021/je050527x):
Numbers after ± are expanded uncertainties.

Key:
[1] = refractive index (Na D-line) (dimensionless); details: 293.1 K; 101.33 kPa; Liquid; Standard Abbe refractometry
[2] = Liquid; for mass density: 101.33 kPa; for Normal boiling temperature: Fischer boiling-point apparatus

| SMILES | refractive index [1] | Normal boiling temperature [2] [°C] | mass density ([2]; 298.1 K) [kg/m3] | mass density ([2]; 293.1 K) [kg/m3] |
| --- | --- | --- | --- | --- |
| CCCC#N [butanenitrile] | 1.384 ± 0.0011 | 117.40 ± 0.2 | – | 793.7 ± 1.1 |
| CC(=O)O [acetic acid] | 1.3721 ± 0.0011 | 117.70 ± 0.2 | 1044.3 ± 0.5 | – |
| CC(=O)CC(C)C [4-methylpentan-2-one] | 1.3959 ± 0.0011 | 116.30 ± 0.2 | 796.2 ± 1.1 | – |

Further lines, with some results ahead:

| refractive index [1] | Normal boiling temperature [2] [°C] | mass density ([2]; 298.1 K) [kg/m3] | SMILES | mass density ([2]; 293.1 K) [kg/m3] |
| --- | --- | --- | --- | --- |
| 1.5235 ± 0.0011 | 213.10 ± 0.2 | – | CC(=O)OCc1ccccc1 [benzyl ethanoate] | 1055.2 ± 0.9 |
| 1.3811 ± 0.0011 | 140.90 ± 0.2 | 988 ± 0.5 | CCC(=O)O [propanoic acid] | – |
